Results: patent US20170049725A9, “COMBINATION CANCER TREATMENT” (WISCONSIN ALUMNI RESEARCH FOUNDATION, priority 2014, published 2017)
Entries after “also recorded” stand apart in the source; their conditions may differ.

Columns and labels:
[1] = tested on: caspase-3 and PARP in MCF-10A-Vector cells; test: Immunoblotting of caspase activation (procaspase-3, PARP); format: cell-based, Human; details: metformin 5 mM 48 hours, then TRAIL 1.5 μg/ml 16 hours
[2] = tested on: GILM2 cells; test: Crystal violet cell survival assay; details: for cytotoxicity of agent alone (cell confluence of surviving cells): metformin 5 mM or agonist 1.5 μg/ml alone
Procedure: (§1) Top panel: representative images.
(§2) Crystal violet cell survival assay: Cells were seeded overnight on 6-well plates (3×10^5 cells/well). […] Surviving cells were fixed and stained with crystal violet as described in the art. The percentage of cell confluence was determined using NIH Image J software.

[3] = tested on: GILM2-mCherry mammary tumors; test: Orthotopic model of metastatic triple-negative breast cancer; format: in vivo, female NSG mice; details: NSG mice; TRAIL 10 mg/kg i.p. daily for two weeks; metformin 250 mg/mL in drinking water; alone or combined
Procedure: GILM2-mCherry cells (1×10^6) were injected intraductally into both 4th mammary glands of female NOD scid IL2 receptor γ chain knockout (NSG) mice. Mice were randomized into 4 groups (10 mice per group): vehicle, TRAIL alone (10 mg/kg i.p. daily for two weeks), metformin alone (250 mg/mL in drinking water), or the combination of these doses of metformin and TRAIL. Mice were treated with metformin beginning three weeks after tumor inoculation and throughout the study; TRAIL treatment was initiated 3.5 weeks after tumor cell inoculation.
To determine whether metformin augments the antitumor effects of TRAIL in an orthotopic model of metastatic triple-negative breast cancer, female NSG mice bearing established GILM2-mCherry mammary tumors were treated with vehicle, metformin alone, TRAIL alone or the combination of metformin and TRAIL.

[4] = tested on: XIAP in MDA-MB-468 breast cancer cells; test: Immunoblot of XIAP expression; format: cell-based; details: 5 mM metformin for 72 hours
Procedure: (§3) Immunoblot of XIAP expression in MDA-MB-231, GILM2 and MDA-MB-468 breast cancer cell lines grown in control media (V) or media containing 5 mM metformin (MF) for 72 hours.
(§4) Without being held to theory, it was postulated that metformin might sensitize cancer cells to TRAIL by downregulating XIAP.

[5] = tested on: XIAP in MDA-MB-231 breast cancer cells; test: Immunoblot of XIAP expression; format: cell-based; details: 5 mM metformin for 72 hours
Procedure: as §3, §4

[6] = tested on: DU145 prostate carcinoma cells; test: MTS cell viability assay
Procedure: (§5) Human GILM2, HT29 and DU145 carcinoma cells were untreated or preincubated with metformin (MF, 5 mM) for 48 hours and then treated with TRAIL (1.5 μg/ml), mapatumumab (1.5 μg/ml), or lexatumumab (1.5 μg/ml) for an additional 24 hours. Cell viability was determined by MTS assay and expressed as fold-change relative to untreated controls. *P<0.05, **P<0.01 or ***P<0.001 versus controls.
(§6) Cell viability assay: An MTS cell viability assay was performed as known in the art. Briefly, cells were plated overnight in 96-well plates (3×10^3 cells/well). Cells were then untreated or preincubated with metformin (5 mM) for 48 hours before adding lexatumumab (1.5 μg/ml), mapatumumab (1.5 μg/ml) or TRAIL (1.5 μg/ml). Cell viability was assessed 24 hours later. Cell viability was determined in triplicate wells and expressed as the fold-change relative to untreated controls.

[7] = tested on: caspase-3 and PARP in MCF-10A-RasV12 cells; test: Immunoblotting of caspase activation (procaspase-3, PARP); format: cell-based, Human; details: metformin 5 mM 48 hours, then TRAIL 1.5 μg/ml 16 hours
[8] = tested on: GILM2 breast carcinoma cells; test: MTS cell viability assay
Procedure: as §5, §6

[9] = tested on: caspase-3 and PARP in DU145 carcinoma cells; test: Immunoblotting of caspase activation (procaspase-3, PARP); format: cell-based, Human; details: metformin 5 mM 48 hours, then TRAIL 1.5 μg/ml 16 hours
[10] = tested on: HT29 colon cancer cells; test: MTS cell viability assay
Procedure: as §5, §6

[11] = tested on: transformed MCF-10A-RasV12 cells; test: MTS cell viability assay; format: cell-based, Human
Procedure: (§7) Untransformed MCF-10A-Vector and transformed MCF-10A-RasV12 cells were untreated or preincubated with metformin (MF, 5 mM) for 48 hours and then treated with TRAIL (1.5 μg/ml), mapatumumab (1.5 μg/ml), or lexatumumab (1.5 μg/ml) for an additional 24 hours. Cell viability was determined by MTS assay and expressed as fold-change relative to untreated controls. **P<0.01 or ***P<0.001 versus controls.
as §6

[12] = tested on: XIAP in GILM2 breast cancer cells; test: Immunoblot of XIAP expression; format: cell-based, Human; details: 5 mM metformin for 72 hours
Procedure: as §3, §4

[13] = tested on: caspase-3 and PARP in HT29 carcinoma cells; test: Immunoblotting of caspase activation (procaspase-3, PARP); format: cell-based, Human; details: metformin 5 mM 48 hours, then TRAIL 1.5 μg/ml 16 hours
[14] = tested on: untransformed MCF-10A-Vector cells; test: MTS cell viability assay; format: cell-based, Human; details: metformin 5 mM or agonist 1.5 μg/ml alone
Procedure: as §7, §6

[15] = tested on: caspase-3 and PARP in GILM2 carcinoma cells; test: Immunoblotting of caspase activation (procaspase-3, PARP); format: cell-based, Human; details: metformin 5 mM 48 hours, then TRAIL 1.5 μg/ml 16 hours
[16] = tested on: untransformed MCF-10A-Vector cells; test: Crystal violet cell survival assay; format: cell-based, Human; details: metformin 5 mM
Procedure: as §1, §2

[17] = tested on: transformed MCF-10A-RasV12 cells; test: Crystal violet cell survival assay; format: cell-based, Human; details: metformin 5 mM 48 hours preincubation
Procedure: as §1, §2

[18] = tested on: TRAIL-R1 mRNA in GILM2 cells; test: TRAIL receptor mRNA levels by real-time PCR; format: cell-based, Human; details: 5 mM metformin for 72 hours, normalized to control media
Procedure: GILM2 breast cancer cells were cultured in control media or media containing 5 mM metformin (MF) for 72 hours, and total RNA was then isolated. TRAIL-R2 and TRAIL-R1 mRNA levels were measured by real-time PCR and normalized to expression in GILM2 cells grown in control media.
To determine whether metformin sensitizes cancer cells to TRAIL by increasing the expression of its proapoptotic receptors (TRAIL-R1 and TRAIL-R2), GILM2 cells were treated with metformin for 72 hours, and then TRAIL receptor mRNA levels were measured by real-time PCR.

[19] = tested on: TRAIL-R1 on GILM2 cells; test: Cell surface expression of TRAIL receptors by flow cytometry; format: cell-based, Human; details: 5 mM metformin for 72 hours
Procedure: GILM2 cells were grown in control media or media containing 5 mM metformin for 72 hours, incubated with control IgG, TRAIL-R1 or TRAIL-R2 mAb, and analyzed by flow cytometry.
To determine whether metformin enhances the cell surface expression of TRAIL receptors in cancer cells, GILM2 cells were treated with metformin for 72 hours, and the cell surface expression of TRAIL-R2 and TRAIL-R1 was determined by flow cytometry.

[20] = tested on: HT29 cells; test: Crystal violet cell survival assay; format: cell-based, Human
Text: as §1

[21] = tested on: DU145 cells; test: Crystal violet cell survival assay; format: cell-based, Human
Text: as §1

[22] = tested on: metastatic breast cancer cells; details: cited from earlier work
[23] = metformin 5 mM 48 hours preincubation, then TRAIL 1.5 μg/ml 24 hours
[24] = metformin 5 mM 48 hours preincubation, then lexatumumab 1.5 μg/ml 24 hours
[25] = metformin 5 mM 48 hours preincubation, then mapatumumab 1.5 μg/ml 24 hours
[26] = metformin 5 mM or agonist 1.5 μg/ml alone

Q: Which results are given for `CN(C)C(=N)NC(=N)N` [metformin, N,N-dimethylimidodicarbonimidic diamide]?
A: TRAIL-induced proteolytic cleavage of PARP [1]: little effect; TRAIL-induced proteolytic cleavage of procaspase-3 [1]: little effect; cytotoxicity of TRAIL (cell confluence of surviving cells) [2, 23]: increased the cytoxicity; cytotoxicity of lexatumumab (cell confluence of surviving cells) [2, 24]: increased the cytoxicity; cytotoxicity of mapatumumab (cell confluence of surviving cells) [2, 25]: increased the cytoxicity; also recorded: more modest; cytotoxicity of agent alone (cell confluence of surviving cells) [2]: modest cytoxicity; lung metastases [3]: no significant effect; mammary tumor growth [3]: no significant effect; XIAP protein levels [4]: reduction; XIAP protein levels [5]: reduction; sensitivity to TRAIL (cell viability) [6, 23]: enhanced the sensitivity; sensitivity to lexatumumab (cell viability) [6, 24]: enhanced the sensitivity; cytotoxicity of mapatumumab (cell viability) [6, 25]: did not augment the cytotoxicity; effect on cell viability, agent individually [6, 26]: modest or no significant effect; TRAIL-induced proteolytic cleavage of PARP [7]: enhanced; TRAIL-induced proteolytic cleavage of procaspase-3 [7]: enhanced; sensitivity to TRAIL (cell viability) [8, 23]: enhanced the sensitivity; sensitivity to lexatumumab (cell viability) [8, 24]: enhanced the sensitivity; cytotoxicity of mapatumumab (cell viability) [8, 25]: did not augment the cytotoxicity; effect on cell viability, agent individually [8, 26]: modest or no significant effect; TRAIL-induced proteolysis of the caspase substrate PARP [9]: increased; TRAIL-induced proteolytic activation of procaspase-3 [9]: augmented; sensitivity to TRAIL (cell viability) [10, 23]: enhanced the sensitivity; sensitivity to lexatumumab (cell viability) [10, 24]: enhanced the sensitivity; cytotoxicity of mapatumumab (cell viability) [10, 25]: did not augment the cytotoxicity; effect on cell viability, agent individually [10, 26]: modest or no significant effect; sensitivity to TRAIL (cell viability) [11, 23]: enhanced the sensitivity; sensitivity to lexatumumab (cell viability) [11, 24]: enhanced the sensitivity; sensitivity to mapatumumab (cell viability) [11, 25]: not; effect on cell viability, agent individually [11, 26]: only modest effects; XIAP protein levels [12]: reduction; TRAIL-induced proteolysis of the caspase substrate PARP [13]: increased; TRAIL-induced proteolytic activation of procaspase-3 [13]: augmented; effect on cell viability, agent individually [14]: largely resistant; TRAIL-induced proteolysis of the caspase substrate PARP [15]: increased; TRAIL-induced proteolytic activation of procaspase-3 [15]: augmented; effect of metformin alone on cell survival [16]: little effect; sensitization to TRAIL (cell survival) ([17]; then TRAIL 1.5 μg/ml 24 hours): dramatically sensitized; sensitization to lexatumumab (cell survival) ([17]; then lexatumumab 1.5 μg/ml 24 hours): dramatically sensitized; effect on mapatumumab-induced cell death ([17]; then mapatumumab 1.5 μg/ml 24 hours): only a modest effect; TRAIL-R1 mRNA levels [18]: modestly reduced; cell surface expression of TRAIL-R1 [19]: did not significantly affect; cytotoxicity of TRAIL (cell confluence of surviving cells) [20, 23]: increased the cytoxicity; cytotoxicity of lexatumumab (cell confluence of surviving cells) [20, 24]: increased the cytoxicity; cytotoxicity of mapatumumab (cell confluence of surviving cells) [20, 25]: increased the cytoxicity; also recorded: more modest; cytotoxicity of agent alone (cell confluence of surviving cells) [20, 26]: more robust cytotoxicity; cytotoxicity of TRAIL (cell confluence of surviving cells) ([21]; metformin 5 mM 48 hours preincubation, then TRAIL 1.5 μg/ml 48 hours): increased the cytoxicity; cytotoxicity of lexatumumab (cell confluence of surviving cells) ([21]; metformin 5 mM 48 hours preincubation, then lexatumumab 1.5 μg/ml 48 hours): increased the cytoxicity; cytotoxicity of mapatumumab (cell confluence of surviving cells) ([21]; metformin 5 mM 48 hours preincubation, then mapatumumab 1.5 μg/ml 48 hours): increased the cytoxicity; cytotoxicity of agent alone (cell confluence of surviving cells) [21, 26]: modest cytoxicity

Q: Which lung metastases [3] does the source give for “TRAIL: Soluble recombinant TRAIL corresponding to amino acids 95-281 of the protein, expressed in bacteria, His-tagged” here?
A: inhibited

Q: And the mammary tumor growth [3]?
A: inhibited

Q: What does the source list for “lexatumumab: fully human IgG1 agonistic monoclonal antibody that binds TRAIL-R2/DR5”?
A: cytotoxicity of agent alone (cell confluence of surviving cells) [2]: modest cell death; sensitivity to apoptosis induction, compared with mapatumumab [22]: more sensitive
